The record followed here is ChEMBL document CHEMBL4321881 (J Med Chem, 2020).

Molecules are shown by their SMILES. Values after ≈ are worked out from the molar mass of the structure shown.

Broadly, the solubility is the concentration that dissolves in the medium under given conditions. A word on the IC50: it is the concentration at which inhibition is half-maximal. A word on the inhibition in vivo: it is how much of the control response was suppressed.

Series [1] can be described thus: Metabolic stability in human liver microsomes assessed as parent compound remaining after 30 mins. Type of series: ADME, Microsome. The conditions noted are these: read-out: Stability. On the technique in general: Liver microsomes are vesicles of endoplasmic reticulum, rich in cytochrome P450 enzymes.
A short description of series [2]: Solubility of the compound. Type of series: physicochemical.
The target in series [3] is T1, Isocitrate dehydrogenase [NADP] cytoplasmic (Homo sapiens, UniProt O75874, R132H). In words: Inhibition of recombinant human Myc-DDK-tagged IDH1 R132H mutant using alpha-ketoglutarate as substrate preincubated for 15 mins followed by substrate and NADPH addition and measured after 45 mins by diaphorase/resazurin dye based assay. Background: Alamar Blue is a resazurin reagent that responds to reducing activity.
Target sequence in this assay (O75874 2-414 R132H limits assumed): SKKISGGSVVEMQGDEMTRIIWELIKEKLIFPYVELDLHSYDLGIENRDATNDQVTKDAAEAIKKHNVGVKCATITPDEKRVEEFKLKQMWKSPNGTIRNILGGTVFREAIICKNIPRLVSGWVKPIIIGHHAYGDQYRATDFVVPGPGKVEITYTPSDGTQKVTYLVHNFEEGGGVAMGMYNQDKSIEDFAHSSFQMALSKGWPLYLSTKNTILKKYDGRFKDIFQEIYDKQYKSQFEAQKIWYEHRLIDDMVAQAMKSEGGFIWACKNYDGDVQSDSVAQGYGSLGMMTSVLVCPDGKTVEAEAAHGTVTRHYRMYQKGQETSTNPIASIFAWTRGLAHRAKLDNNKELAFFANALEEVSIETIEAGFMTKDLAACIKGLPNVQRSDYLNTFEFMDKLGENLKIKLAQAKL

The nature of series [4]: Metabolic stability in mouse liver microsomes assessed as parent compound remaining after 30 mins. The conditions noted are these: read-out: Stability. Type of series: ADME, Microsome.
Series [5] in a line: Time at which fCmax required to show >90% suppression of 2-HG level in human HCT116 cells xenografted BALB/c nude mouse in CD1 mouse at 100 mg/kg, po. It counts as ADME, organism-based. The note with it: in vivo.
Series [6] has as its system Mus musculus. Briefly: In vivo inhibition of IDH1 R132C mutant in human HCT116 cells xenografted in BALB/c nude mouse assessed as reduction in tumor 2-HG level at 50 mg/kg, po administered at 12 hrs intervals for 3 times measured at 12 to 24 hrs post-last dose by LC-MS analysis relative to control. Type of series: functional. The conditions noted are these: HCT-116, po.

Series [7] is described as follows: Free Cmax in CD1 mouse at 100 mg/kg, po administered as single dose. It counts as ADME, organism-based. The note with it: in vivo.
Series [8] concerns Mus musculus. Briefly: In vivo inhibition of IDH1 R132C mutant in human HCT116 cells xenografted in po dosed BALB/c nude mouse assessed as reduction in tumor 2-HG level administered at 12 hrs intervals for 3 times measured up to 24 hrs post-last dose by LC-MS analysis. Type of series: functional. A general note: In xenograft studies the graft and the host belong to different species.

The nature of series [9]: Kinetic solubility of the compound at pH 7.4. It counts as physicochemical. The conditions noted are these: buffer, read-out: Kinetic_solubility.
Series [10] is described as follows: Apparent permeability across apical to basolateral side in human Caco2 cells. Type of series: ADME, cell-based. The conditions noted are these: caco-2.
Series [11] can be described thus: Free Cmax in CD1 mouse at 100 mg/kg, po administered as single dose measured after 7 hrs. It counts as ADME, organism-based. The note with it: in vivo.
The test system of series [12] is Mus musculus. Briefly: In vivo inhibition of IDH1 R132H mutant in human HCT116 cells xenografted in BALB/c nude mouse assessed as reduction in tumor 2-HG level at 50 mg/kg, po administered at 12 hrs intervals for 3 times measured up to 24 hrs post-last dose by LC-MS analysis relative to control. It counts as functional. The conditions noted are these: HCT-116, po.

The nature of series [13]: Permeability of the compound by PAMPA. The note with it: read-out: permeability. Type of series: ADME.
Series [14] has as its system Mus musculus. In words: In vivo inhibition of IDH1 R132H mutant in human HCT116 cells xenografted in po dosed BALB/c nude mouse assessed as reduction in tumor 2-HG level administered at 12 hrs intervals for 3 times measured up to 24 hrs post-last dose by LC-MS analysis. It counts as functional.
The nature of series [15]: Apparent permeability across basolateral to apical side in human Caco2 cells. The note with it: caco-2. Type of series: ADME, cell-based.
For series [16], the target named is T2, Isocitrate dehydrogenase [NADP] cytoplasmic (Homo sapiens, UniProt O75874, R132C). In words: Inhibition of recombinant human Myc-DDK-tagged IDH1 R132C mutant using alpha-ketoglutarate as substrate preincubated for 15 mins followed by substrate and NADPH addition and measured after 45 mins by diaphorase/resazurin dye based assay.
Target sequence in this assay (O75874 2-414 R132C limits assumed): as the sequence (O75874 2-414 R132H limits assumed) above, with H131C counted along it
For series [17], the target named is T1, Isocitrate dehydrogenase [NADP] cytoplasmic. Briefly: Inhibition of IDH1 R132H mutant in human HCT116 cells assessed as reduction in 2-HG levels after 24 hrs by RapidFire high-throughput mass spectrometry assay. It counts as cell-based.
Target sequence in this assay (O75874 whole entry R132H): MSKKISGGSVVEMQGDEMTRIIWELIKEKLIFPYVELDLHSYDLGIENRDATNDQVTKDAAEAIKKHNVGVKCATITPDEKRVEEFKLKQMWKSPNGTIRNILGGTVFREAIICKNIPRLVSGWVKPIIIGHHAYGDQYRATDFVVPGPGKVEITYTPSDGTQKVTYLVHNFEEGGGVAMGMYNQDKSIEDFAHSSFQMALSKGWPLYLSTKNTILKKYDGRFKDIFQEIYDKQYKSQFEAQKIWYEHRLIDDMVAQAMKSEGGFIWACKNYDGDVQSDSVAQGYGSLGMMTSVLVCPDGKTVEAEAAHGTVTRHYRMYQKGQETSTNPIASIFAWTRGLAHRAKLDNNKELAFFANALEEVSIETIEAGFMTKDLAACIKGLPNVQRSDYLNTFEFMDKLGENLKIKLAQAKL
Series [18] addresses T2, Isocitrate dehydrogenase [NADP] cytoplasmic. In words: Inhibition of IDH1 R132C mutant in human HCT116 cells assessed as reduction in 2-HG levels after 24 hrs by RapidFire high-throughput mass spectrometry assay. Type of series: cell-based.
Target sequence in this assay (O75874 whole entry R132C): as the sequence (O75874 whole entry R132H) above, with H132C counted along it

As for `C[C@H](Nc1ccc(C#N)n(C)c1=O)c1cc2cc(Cl)c(O[C@H](C)c3ccccn3)cc2[nH]c1=O`, the remaining at 0.5 h in [1] worked out at 70%. Also, the solubility in series [2] turned out to be 1.6 µM (≈ 0.761 µg/mL).
In the case of `N#Cc1ccc(NCc2cc3cc(Cl)ccc3[nH]c2=O)c(=O)[nH]1`, the IC50 in series [3] amounted to 64.7 nM. The remaining at 0.5 h in series [1] was found to be 100%; in series [4], 86%. Also, in [2], the solubility was 2.21 µM (≈ 0.722 µg/mL).
Take `C[C@H](Nc1ccc(C#N)n(C)c1=O)c1cc2cc(Cl)ccc2[nH]c1=O` [OLUTASIDENIB]: the Time in series [5] was 7 h. Also, the inhibition in vivo at 50 mg/kg in [6] and in series [12] was over 90% throughout. Further, the fCmax in [7] was determined as 200 nM; in [11] it was 130 nM. For the same compound, the figures for the fIC50 in [8] and in series [14] were 36 nM and 26 nM, respectively. Moreover, the solubility kinetic in series [9] stood at 35.4 µM (≈ 12.6 µg/mL). The values for the Papp in series [10], in series [13] and in [15] were 12.12 ×10⁻⁶ cm/s, 19.9 ×10⁻⁶ cm/s and 9.01 ×10⁻⁶ cm/s, respectively. Moreover, the results for the remaining at 0.5 h in [1] and in [4] were 100% and 92%, respectively. In series [2], the solubility came to 34.5 µM (≈ 12.2 µg/mL).
Take `Cn1c(C(F)(F)F)ccc(NCc2cc3cc(Cl)ccc3[nH]c2=O)c1=O`: the IC50 in [3] was 160 nM. Also, the remaining at 0.5 h in series [1] amounted to 85%; in series [4], 67%. In addition, the solubility in series [2] was under 0.1 µM.
Consider `COc1cc2[nH]c(=O)c([C@H](C)Nc3ccc(C#N)n(C)c3=O)cc2cc1Cl`, for which the remaining at 0.5 h in [1] came to 83%. This compound came in with a solubility in series [2] of 11.6 µM (≈ 4.46 µg/mL).
`Cn1c(C#N)ccc(NCc2cc3cc(Cl)ccc3[nH]c2=O)c1=O`: the remaining at 0.5 h worked out at 99% in series [1] and 73% in series [4]. The same compound showed a solubility in series [2] of 0.295 µM (≈ 0.101 µg/mL).
As for `COc1cccc(NCc2cc3cc(Cl)ccc3[nH]c2=O)c1`, the IC50 in series [3] is over 25000 nM. Moreover, the remaining at 0.5 h in series [1] is 78%; in series [4], 19%. In series [2], this compound showed a solubility of 0.28 µM (≈ 0.0881 µg/mL).
The matching figures for `CN1CCCC(NCc2cc3cc(Cl)ccc3[nH]c2=O)C1=O` (stereo unspecified): 25000 nM, 99%, 83% and 94 µM (≈ 30.1 µg/mL).
For the compound `C[C@H](Nc1ccc(C#N)n(C)c1=O)c1cc2cc(Cl)c(OCC3CC3)cc2[nH]c1=O`, the remaining at 0.5 h in series [1] is 82%. Besides, the solubility in series [2] was found to be 0.53 µM (≈ 0.225 µg/mL).
For the compound `Cn1cccc(NCc2cc3cc(Cl)ccc3[nH]c2=O)c1=O`, the remaining at 0.5 h in series [1] was 90%; in series [4], 26%. In addition, the solubility in series [2] stood at 54 µM (≈ 17.1 µg/mL).
`CCn1cccc(NCc2cc3cc(Cl)ccc3[nH]c2=O)c1=O`: the remaining at 0.5 h in series [1] came out at 72%; in series [4], 7%. The solubility in [2] amounted to 10 µM (≈ 3.3 µg/mL).
On to `O=c1[nH]c2ccc(Cl)cc2cc1CNc1cccn(C2CC2)c1=O`, for which the remaining at 0.5 h in series [1] was 78%; in series [4], 7%. Further, in series [2], the solubility amounted to 56 µM (≈ 19.1 µg/mL).
Regarding `C[C@H](Nc1ccc(C#N)n(C)c1=O)c1cc2cc(Cl)c(OCc3ccccn3)cc2[nH]c1=O`, the remaining at 0.5 h in series [1] was found to be 66%. Further, the solubility in [2] amounted to 2.5 µM (≈ 1.15 µg/mL).
Turning to `C[C@H](Nc1ccc(C#N)n(C)c1=O)c1cc2cc(Cl)c(F)cc2[nH]c1=O`, the IC50 in series [3] is 25 nM; in [16], 159 nM; in [17] it was 22 nM; in series [18], 104 nM. Also, the remaining at 0.5 h in series [1] is 100%. For the same compound, in series [2], the solubility is 18 µM (≈ 6.71 µg/mL).
